Laboratory results as given in patent publication US8466164B2.

Assays:
SaOS-2 cells = assay: MTT cell viability assay on SaOS-2; conditions: SaOS-2, MTT, control = 100%, mean ± SD; for CV (%) after 24 h (cellular viability with respect to control): 24 h treatment; for CV (%) after 48 h (cellular viability with respect to control): 48 h treatment, 25 μM
recombinant human Src = recombinant human Src (Homo sapiens, UniProt P12931); assay: cell-free Src enzymatic assay; assay type: biochemical; conditions: calculated from ID50; triplicate, mean values; read-out: Ki toward recombinant human Src
Sequence of recombinant human Src (P12931 whole entry): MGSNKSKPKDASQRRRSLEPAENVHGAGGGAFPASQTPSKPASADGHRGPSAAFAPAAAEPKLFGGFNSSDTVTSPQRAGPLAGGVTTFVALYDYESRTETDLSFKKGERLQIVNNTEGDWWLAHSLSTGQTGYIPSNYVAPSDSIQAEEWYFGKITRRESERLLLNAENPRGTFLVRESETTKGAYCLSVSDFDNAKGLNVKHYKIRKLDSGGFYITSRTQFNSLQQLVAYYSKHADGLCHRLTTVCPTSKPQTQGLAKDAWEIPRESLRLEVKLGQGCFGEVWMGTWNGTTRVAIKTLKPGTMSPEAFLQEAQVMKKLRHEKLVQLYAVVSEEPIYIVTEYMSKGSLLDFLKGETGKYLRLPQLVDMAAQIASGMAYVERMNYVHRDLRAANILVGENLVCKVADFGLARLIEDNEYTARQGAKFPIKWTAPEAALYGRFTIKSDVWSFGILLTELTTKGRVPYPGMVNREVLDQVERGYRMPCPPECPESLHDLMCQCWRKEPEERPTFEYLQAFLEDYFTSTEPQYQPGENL

Row | melting point | Ki (recombinant human Src) | Compound | CV (%) after 24 h (cellular viability with respect to control) (SaOS-2 cells) | CV (%) after 48 h (cellular viability with respect to control) (SaOS-2 cells)
1 | 126 to 127 °C | – | CSc1nc(NCc2ccc(Cl)cc2)c2cnn(CC(Cl)c3ccccc3)c2n1 (centres unmarked) [SI-87] | 113.4 ± 1.5% | 54.9 ± 2.4%
2 | 60 to 61 °C | – | COc1ccc(CCNc2nc(SC)nc3c2cnn3CC(Cl)c2ccccc2)cc1 (centres unmarked) [SI-61] | 101.0 ± 3.0% | 49.8 ± 2.1%
3 | 99 to 100 °C | – | CSc1nc(NCCc2ccccc2Cl)c2cnn(CC(Cl)c3ccccc3)c2n1 (centres unmarked) [SI-59] | 102.9 ± 1.3% | 100.5 ± 0.5%
4 | 152 to 153 °C | – | CSc1nc(NCc2ccccc2)c2cnn(CC(Cl)c3ccc(F)cc3)c2n1 (centres unmarked) [SI-65] | 62.7 ± 0.7% | 44.4 ± 2.5%
5 | – | 0.7 µM | Clc1cccc(Nc2nc(SC3CCCCC3)nc3c2cnn3CC(Cl)c2ccccc2)c1 (centres unmarked) [SI-153] | – | –
6 | 130 to 131 °C | – | CSc1nc(NCc2ccccc2)c2cnn(CC(Cl)c3ccc(Cl)cc3)c2n1 (centres unmarked) [SI-70] | 52.2 ± 2.4% | 24.4 ± 2.5%
7 | 136 to 137 °C | – | CSc1nc(NCc2ccc(F)cc2)c2cnn(CC(Cl)c3ccccc3)c2n1 (centres unmarked) [SI-84] | 102.1 ± 1.4% | 99.2 ± 1.0%
8 | 99 to 100 °C | – | CSc1nc(NCCc2ccc(C)cc2)c2cnn(CC(Cl)c3ccccc3)c2n1 (centres unmarked) [SI-60] | 101.9 ± 1.9% | 96.3 ± 1.1%
9 | 113 to 114 °C | – | CSc1nc(NCc2cccc(F)c2)c2cnn(CC(Cl)c3ccccc3)c2n1 (centres unmarked) [SI-85] | 106.2 ± 3.0% | 71.3 ± 2.1%

Further lines, the compound ahead of its results:

Row | Compound | melting point | Ki (recombinant human Src) | CV (%) after 24 h (cellular viability with respect to control) (SaOS-2 cells) | CV (%) after 48 h (cellular viability with respect to control) (SaOS-2 cells)
10 | CSc1nc(NCCc2ccccc2)c2cnn(CC(Cl)c3ccc(Cl)cc3)c2n1 (centres unmarked) [SI-71] | 127 to 129 °C | – | 99.9 ± 0.9% | 89.4 ± 2.3%
11 | CSc1nc(Nc2cccc(F)c2)c2cnn(CC(Cl)c3ccccc3)c2n1 (centres unmarked) [SI-90] | – | – | 94.8 ± 2.7% | 84.3 ± 1.5%
12 | CCSc1nc(Nc2cccc(Cl)c2)c2cnn(CC(Cl)c3ccccc3)c2n1 (centres unmarked) [SI-96] | – | 0.5 µM | 76.5 ± 1.9% | 44.3 ± 1.8%
13 | CCCSc1nc(Nc2cccc(Cl)c2)c2cnn(CC(Cl)c3ccccc3)c2n1 (centres unmarked) [SI-101] | – | – | 77.8 ± 3.0% | 6.4 ± 1.9%
14 | CSc1nc(NCCc2ccc(Cl)cc2)c2cnn(CC(Cl)c3ccccc3)c2n1 (centres unmarked) [SI-57] | – | – | 85.2 ± 0.7% | 75.4 ± 1.3%
15 | CSc1nc(Nc2cccc(Br)c2)c2cnn(CC(Cl)c3ccccc3)c2n1 (centres unmarked) [SI-91] | – | 1.8 µM | 100.1 ± 1.1% | 84.7 ± 0.3%
16 | CSc1nc(NCc2ccccc2F)c2cnn(CC(Cl)c3ccccc3)c2n1 (centres unmarked) [SI-86] | – | – | 104.1 ± 1.3% | 99.7 ± 0.4%
17 | CSc1nc(NCCc2cccc(Cl)c2)c2cnn(CC(Cl)c3ccccc3)c2n1 (centres unmarked) [SI-58] | 122 to 123 °C | – | 80.6 ± 0.7% | 39.3 ± 2.0%
18 | CSc1nc(Nc2cccc(Br)c2)c2cnn(CC(Cl)c3ccc(F)cc3)c2n1 (centres unmarked) [SI-128] | – | – | 63.1 ± 1.1% | 55.4 ± 2.0%
19 | CSc1nc(NCCc2cccc(F)c2)c2cnn(CC(Cl)c3ccccc3)c2n1 (centres unmarked) [SI-56] | – | – | 101.1 ± 1.1% | 100.8 ± 2.1%
20 | CSc1nc(NCc2ccccc2Cl)c2cnn(CC(Cl)c3ccccc3)c2n1 (centres unmarked) [SI-88] | 158 to 159 °C | – | 101.7 ± 0.9% | 102.1 ± 1.2%
21 | CSc1nc(Nc2ccccc2)c2cnn(CC(Cl)c3ccccc3)c2n1 (centres unmarked) [SI-118] | – | – | 100.1 ± 1.2% | 94.4 ± 0.7%
22 | Clc1cccc(Nc2ncnc3c2cnn3CC(Cl)c2ccccc2)c1 (centres unmarked) [S-17] | – | – | 104.1 ±0.4% | 101.3 ± 1.5%
23 | CCSc1nc(NCCc2ccccc2)c2cnn(CC(Cl)c3ccccc3)c2n1 (centres unmarked) [S1-72] | 99 to 100 °C | – | 107.3 ± 3.5% | 22.2 ± 1.3%
